Patent publication US11679107B2 (Eisai R&D Management Co., Ltd., priority 2018, dated 2023)
Like-named read-outs stand apart in the source and are kept apart here.

How the values were obtained:
SF3b complexes = molecular target: T1, SF3b complexes (Homo sapiens, UniProt O75533+Q7RTV0); assay: Scintillation proximity assay (SPA) with [3H]-labelled pladienolide probe; type: binding; settings: SF3B1 (WT); geometric mean; read-out: SPA-ATS GMean IC50 (nM) SF3B1 (WT)
T1 construct: endogenous in cells; host or cells: Nuclear extracts; A HeLa S3 extract preparation is described for the in vitro splicing assay
Procedure, shortened: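 SF3b complexes captured from nuclear extracts on anti-SF3B1 antibody SPA beads; test compounds pre-incubated 30 min before 2.5 nM [3H]-pladienolide probe added, then 30 min incubation. Bound probe read by scintillation; values from non-linear regression of concentration–response curves.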

[1] = tested on: Ad2 variant pre-mRNAs spliced in HeLa S3 nuclear extracts; assay: In vitro splicing assay (IVS), RT-qPCR of spliced product; type: biochemical; settings: for IC50: geometric mean; for Ratio Ad2.1/2.2: ratio of IVS IC50 Ad2.1 to Ad2.2
Procedure, shortened: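 Read-out is one-step TaqMan RT-qPCR of spliced Ad2 mRNA with Ftz as reference, normalized to DMSO and fit by non-linear regression. Reactions held HeLa S3 nuclear extract, 2 ng Ad2-derived pre-mRNA and test compound, with 15 min preincubation. Splicing was started with ATP-containing activation buffer and run 90 min at 30 °C.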

[2] = tested on: NCI-H1568 cells (high MCL1); assay: Cell proliferation and viability, CellTiter-Glo, 72 hours; type: cell-based; settings: for GI50: geometric mean
Procedure, shortened: (§1)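 RPMI-1640/10% FBS (Panc: + insulin, FBS 15%); 11-pt half-log dose, ~10 μM-100 pM, 0.1% DMSO; 37° C, 5% CO2; ATP luminescence read; % inhibition vs T0 and vehicle, −100% cidal to 100% uninhibited growth.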

[3] = tested on: Panc 05.04 cells (SF3b K700E mutant); assay: as above; type: cell-based; settings: for GI50: geometric mean
Procedure, shortened: as §1

[4] = Ad2.1 pre-mRNA substrate, read-out: qPCR-IVS-ATS GMean IC50 (nM) Ad2.1
[5] = Ad2.2 pre-mRNA substrate, read-out: qPCR-IVS-ATS GMean IC50 (nM) Ad2.2
[6] = NCI-H1568, read-out: CTGlo-ATS GMean GI50 (nM) 72 h NCIH1568.1, NCIH1568.1 cells, 72 h
[7] = NCIH1568.1 cells, 72 h, −100% cidal, 0% static, 100% maximal growth
[8] = PANC0504.1 cells, 72 h, −100% cidal, 0% static, 100% maximal growth
[9] = Panc 05.04, read-out: CTGlo-ATS GMean GI50 (nM) 72 h PANC0504.1, PANC0504.1 cells, 72 h
[10] = 72 h, NCIH1568.1, -100% = cidal, 0% = static, 100% = uninhibited growth
[11] = NCI-H1568, 72 h, read-out: CTGlo-ATS GMean GI50 (nM) 72 h NCIH1568.1, 72 h, NCIH1568.1
[12] = 72 h, PANC0504.1, -100% = cidal, 0% = static, 100% = uninhibited growth
[13] = Panc 05.04, 72 h, read-out: CTGlo-ATS GMean GI50 (nM) 72 h PANC0504.1, 72 h, PANC0504.1
[14] = NCI-H1568, read-out: CTGlo-ATS GMean GI50 (nM) 72 h NCIH1568.1, 72 h, NCIH1568.1
[15] = Panc 05.04, read-out: CTGlo-ATS GMean GI50 (nM) 72 h PANC0504.1, 72 h, PANC0504.1

SMILES | IC50 (SF3b complexes) | IC50 [1, 4] | IC50 [1, 5] | GI50 [2, 6] | CTGlo-ATS Mean MinResponse % 72 h NCIH1568.1 [2, 7] | CTGlo-ATS Mean MinResponse % 72 h PANC0504.1 [3, 8] | GI50 [3, 9] | Ratio Ad2.1/2.2 [1] | CTGlo-ATS Mean MinResponse % 72 h NCIH1568.1 [2, 10] | GI50 [2, 11] | CTGlo-ATS Mean MinResponse % 72 h PANC0504.1 [3, 12] | GI50 [3, 13] | GI50 [2, 14] | GI50 [3, 15]
C/C(=C\c1ccc(S(=O)(=O)NC2CCCC2)cc1F)[C@H]1OC(=O)C[C@H](O)CC[C@H](C)[C@@H](OC(=O)N2CCN(C)CC2)/C=C/[C@@H]1C [Compound 57] | 9.16 nM | > 25000 nM | 228 nM | 41.3 nM | −47.783% | −71.380% | 49.7 nM |  |  |  |  |  |  | 
C/C(=C\c1cc(F)cc(N2CCOC[C@@H]2CO)c1)[C@H]1OC(=O)C[C@H](O)CC[C@H](C)[C@@H](OC(=O)N2CCN(C)CC2)/C=C/[C@@H]1C [Compound 77] | 1.78 nM | 16.1 nM | 13.3 nM | 1.79 nM | −82.189% | −86.524% | 3.9 nM |  |  |  |  |  |  | 
C/C(=C\c1cc(F)cc(N2CCOCC2)c1)[C@H]1OC(=O)C[C@H](O)CC[C@H](C)[C@@H](OC(=O)NCCCN2CCOCC2)/C=C/[C@@H]1C [Compound 241, [(2S,3S,4E,6R,7S,10R)-2-[(E)-1-(3-fluoro-5-morpholin-4-ylphenyl)prop-1-en-2-yl]-10-hydroxy-3,7-dimethyl-12-oxo-1-oxacyclododec-4-en-6-yl] N-(3-morpholin-4-ylpropyl)carbamate] | 20.5 nM | > 25000 nM | 130 nM |  |  |  |  | 191.917 | −59.521% | 225 nM | −88.873% | 120 nM |  | 
C/C(=C\c1cc(F)cc(N2CCN(CCN3CCOCC3)C2=O)c1)[C@H]1OC(=O)C[C@H](O)CC[C@H](C)[C@@H](OC(=O)N2CCN(C)CC2)/C=C/[C@@H]1C [Compound 67] | 1.95 nM | 22.7 nM | 20.2 nM | 8.6 nM | −75.182% | −87.661% | 7.27 nM |  |  |  |  |  |  | 
C/C(=C\c1cc(F)cc(N2CCN(S(=O)(=O)c3ccc4ccn(C)c4c3)CC2)c1)[C@H]1OC(=O)C[C@H](O)CC[C@H](C)[C@@H](OC(=O)N2CCN(C)CC2)/C=C/[C@@H]1C [Compound 115] | 144 nM | 335 nM | 233 nM | 88.9 nM | −93.625% | −97.417% | 85.2 nM |  |  |  |  |  |  | 
C/C(=C\c1cccc(N(C)C)c1)[C@H]1OC(=O)C[C@H](O)CC[C@H](C)[C@@H](OC(=O)N2CCN(C)CC2)/C=C/[C@@H]1C [Compound 265] | 5.3 nM | > 25000 nM | 71.6 nM |  |  |  |  | 349.0 | −9.0% | 47.5 nM | 25.1% | 36.7 nM |  | 
C/C(=C\c1cc(F)cc(N2CCOCC2)c1)[C@H]1OC(=O)C[C@H](O)CC[C@H](C)[C@@H](OC(=O)N2CCN(CC(F)(F)F)CC2)/C=C/[C@@H]1C [Compound 92, [(2S,3S,4E,6R,7S,10R)-2-[(E)-1-(3-fluoro-5-morpholin-4-ylphenyl)prop-1-en-2-yl]-10-hydroxy-3,7-dimethyl-12-oxo-1-oxacyclododec-4-en-6-yl] 4-(2,2,2-trifluoroethyl)piperazine-1-carboxylate] | 80 nM | > 25000 nM | 664 nM | 401 nM | −3.918% | −37.359% | 433 nM |  |  |  |  |  |  | 
C/C(=C\c1cc(F)cc(N2CCOCC2)c1)[C@H]1OC(=O)C[C@H](O)CC[C@H](C)[C@@H](OC(=O)N2CCN(C)C(C)(C)C2)/C=C/[C@@H]1C [Compound 246, [(2S,3S,4E,6R,7S,10R)-2-[(E)-1-(3-fluoro-5-morpholin-4-ylphenyl)prop-1-en-2-yl]-10-hydroxy-3,7-dimethyl-12-oxo-1-oxacyclododec-4-en-6-yl] 3,3,4-trimethylpiperazine-1-carboxylate] | 5.8 nM | 279 nM | 36.1 nM |  |  |  |  | 7.730 | −68.331% |  | −95.467% |  | 12.1 nM | 16.5 nM
C/C(=C\c1cc(F)cc(N2CCN(CCO)CC2)c1)[C@H]1OC(=O)C[C@H](O)CC[C@H](C)[C@@H](OC(=O)N2CCC(N3CCCCC3)CC2)/C=C/[C@@H]1C [Compound 13] | 7.43 nM | 19.3 nM | 15.9 nM | 20.8 nM | −95.312% | −94.040% | 32.7 nM |  |  |  |  |  |  | 
C/C(=C\c1cc(F)cc(N2CCOCC2)c1)[C@H]1OC(=O)C[C@H](O)CC[C@H](C)[C@@H](OC(=O)N2CCC(N(C)C)C2)/C=C/[C@@H]1C (stereo in doubt) [Compound 243, [(2S,3S,4E,6R,7S,10R)-2-[(E)-1-(3-fluoro-5-morpholin-4-ylphenyl)prop-1-en-2-yl]-10-hydroxy-3,7-dimethyl-12-oxo-1-oxacyclododec-4-en-6-yl] (3S)-3-(dimethylamino)pyrrolidine-1-carboxylate] | 3.59 nM | 98.4 nM | 38.5 nM |  |  |  |  | 2.553 | −71.678% |  | −92.290% |  | 10.6 nM | 10.4 nM
C/C(=C\c1cc(C)cc(N2CCOCC2)c1)[C@H]1OC(=O)C[C@H](O)CC[C@H](C)[C@@H](OC(=O)N2CCN(C)CC2)/C=C/[C@@H]1C [Compound 18] | 16.7 nM | 77.5 nM | 34.3 nM | 26.1 nM | −60.339% | −83.683% | 19.9 nM |  |  |  |  |  |  | 
